Measurements taken from US7612057B2, “Supramolecular complexes as photoactivated DNA cleavage agents” (Virginia Tech Intellectual Properties, Inc., priority 2002, dated 2009).

Columns and labels:
[1] = system: pUC18 plasmid; test: Photocleavage of pUC18 plasmid DNA assayed by agarose gel electrophoresis; assay type: biochemical
Description: FIG. 10A-C. (a) Schematic representations of imaged agarose gel showing the photocleavage of pUC18 plasmid by [{(bpy)2Ru(dpp)}2RhCl2]^5+ in the absence of molecular oxygen. Lane 1 λ molecular weight standard, lanes 2 and 3 plasmid controls, lanes 4 and 6 plasmid incubated at 37° C. (2 h) in the presence of [(bpy)2Ru(dpp)]^2+ and [{(bpy)2Ru(dpp)}2RhCl2]^5+, respectively (1:5metal complex/base pair), lanes 5 and 7 plasmid irradiated at λ≧475 nm for 10 min in the presence of [(bpy)2Ru(dpp)]^2+ and [{(bpY)2Ru(dpp)}2RhCl2]^5+, respectively. (b) Lanes 1 and 2 plasmid controls, lanes 3 and 5 plasmid incubated at 37° C. (3 h) in the presence of [{(bpy)2Ru(bpm)}2RhCl2]^5+ and [{(bpy)2Ru(dpp)}2IrCl2]^5+, respectively, lanes 4 and 6 plasmid irradiated at λ≧475 nm for 10 min in the presence of [{(bpy)2Ru(bpm)}2RhCl2]^5+ and [{(bpy)2Ru(dpp)}2IrCl2]^5+, respectively. (c) Imaged agarose gel showing photocleavage of pBluescript plasmid in the absence of molecular oxygen by [(bpy)2Ru(dpp)RhCl2(dpp)Ru(bpy)2](PF6)5. Lane 1 is the λ molecular weight standard, lane 2 is the control linearized DNA (cut with HindIII) with no metal present, lane 3 is the control circular DNA with no metal present, lane 4 is a 1:5 metal complex/base pair mixture of the plasmid with the metal complex incubated at 37° C. (4 h), and lane 5 is a 1:5 metal complex/base pair mixture of the plasmid with the metal complex photolyzed at 520±5 nm for 4 h. All gels used 0.8% agarose, 90 mM Tris, and 90 mM boric acid buffer (pH=8.2, ionic strength=0.0043 M calculated using the Henderson-Hasselbalch equation).
(§1) A, DNA Photocleavage of pUC18 using [{(bpy)2Os(dpp)}2RhCl2](PF6)5:Lane 1 is the λ molecular weight standard, Lane 2 is a plasmid control, Lane 3 is a 1:5 metal complex/base pair mixture of the plasmid with the metal complex incubated at 37° C. for 20 minutes, Lane 4 is a 1:5 metal complex/base pair mixture of the plasmid with the metal complex photolyzed at >475 nm for 20 minutes.
C, DNA Photocleavage of pUC18 using [{(tpy)RuCl(bpm)}2RhCl2](PF6)3:Lane 1 is the λ molecular weight standard, Lane 2 is a plasmid control, Lane 3 is the plasmid alone photolyzed λ>475 nm for 15 mins, Lane 4 is a 1:5 metal complex/base pair mixture of the plasmid with the metal complex incubated at 37° C. for 15 minutes, Lane 5 is a 1:5 metal complex/base pair mixture of the plasmid with the metal complex photolyzed at >475 nm for 15 minutes.
pUC18 and pBluescript were used to probe pbotocleavage of DNA by gel electrophoresis.^14,26,41,42 pUC18 plasmid is 2686 bp (Bayou Biolabs). Irradiation used a 1000 W xenon arc lamp, a water IR filter, and a 475 nm cut off filter. Solutions were 3.5 μM in metal complex and 6.9 mM in phosphate buffer (pH=7) and allowed for ionic association of the cationic metal complexes with DNA. Dexoygenation was accomplished by bubbling with Ar for 30 min prior to the photolysis of the samples in an airtight cell blanketed with Ar.
The photocleavage of DNA by [{(bpy)2Ru(dpp)}2RhCl2]^5+ but not the monometallic ruthenium synthon illustrates the role of the supramolecular architecture, including Rh, on the desired photoreactivity. The cleavage product migrates slightly slower through the gel than native nicked plasmid, and similar results have been observed by Turro.^14 […]

[2] = system: pBluescript plasmid; test: Photocleavage of pBluescript plasmid DNA assayed by agarose gel electrophoresis; assay type: biochemical
Description: FIG. 10A-C. […] Lane 1 λ molecular weight standard, lanes 2 and 3 plasmid controls, lanes 4 and 6 plasmid incubated at 37° C. […] (b) Lanes 1 and 2 plasmid controls, lanes 3 and 5 plasmid incubated at 37° C. […] Lane 1 is the λ molecular weight standard, lane 2 is the control linearized DNA (cut with HindIII) with no metal present, lane 3 is the control circular DNA with no metal present, lane 4 is a 1:5 metal complex/base pair mixture of the plasmid with the metal complex incubated at 37° C. (4 h), and lane 5 is a 1:5 metal complex/base pair mixture of the plasmid with the metal complex photolyzed at 520±5 nm for 4 h. All gels used 0.8% agarose, 90 mM Tris, and 90 mM boric acid buffer (pH=8.2, ionic strength=0.0043 M calculated using the Henderson-Hasselbalch equation).
as §1, with “B,” for “A,”, “pBluescript” for “pUC18”, “[{(tpy)RuCl(dpp)}2RhCl2](PF6)3:Lane” for “[{(bpy)2Os(dpp)}2RhCl2](PF6)5:Lane”
pUC18 and pBluescript were used to probe pbotocleavage of DNA by gel electrophoresis.^14,26,41,42 pUC18 plasmid is 2686 bp (Bayou Biolabs). Irradiation used a 1000 W xenon arc lamp, a water IR filter, and a 475 nm cut off filter. […]

[3] = system: Vero cells; test: Photoinduced inhibition of Vero cell replication; assay type: cell-based
Description: Photoinduced inhibition of Vero cell replication by the supramolecular complex [{(bpy)2Ru(dpp)}2RhCl2](PF6)5 was investigated. All experiments were carried out with 0.5 mg/mL of [{(bpy)2Ru(dpp)}2RhCl2](PF6)5 in MEM media, and the results are shown in FIG. 11A. This cell line normally replicates once each 24 hours.
The concentration dependence of photoinduced inhibition of cell replication by the supramolecular complex [{(bpy)2Ru(dpp)}2RhCl2]Cl5 is shown in FIG. 11B. […] This is likely due to photoinduced death of the irradiated cells.

F[P-](F)(F)(F)(F)F.F[P-](F)(F)(F)(F)F.F[P-](F)(F)(F)(F)F.F[P-](F)(F)(F)(F)F.F[P-](F)(F)(F)(F)F.[Cl-].[Cl-].[Os+2].[Os+2].[Rh+3].c1ccc(-c2ccccn2)nc1.c1ccc(-c2ccccn2)nc1.c1ccc(-c2ccccn2)nc1.c1ccc(-c2ccccn2)nc1.c1ccc(-c2nccnc2-c2ccccn2)nc1.c1ccc(-c2nccnc2-c2ccccn2)nc1 [[{(bpy)2Os(dpp)}2RhCl2](PF6)5, [(2,2′-bipyridine)2Os(2,3-bis(2-pyridyl)pyrazine)RhCl2(2,3-bis(2-pyridyl)pyrazine)Os(2,2′-bipyridine)2](PF6)5]
DNA photocleavage ([1]; photolyzed at >475 nm for 20 minutes, 1:5 metal complex/base pair (FIG. 12A)): efficiently cleave DNA

F[P-](F)(F)(F)(F)F.F[P-](F)(F)(F)(F)F.F[P-](F)(F)(F)(F)F.F[P-](F)(F)(F)(F)F.F[P-](F)(F)(F)(F)F.[Cl-].[Cl-].[Rh+3].[Ru+2].[Ru+2].c1ccc(-c2ccccn2)nc1.c1ccc(-c2ccccn2)nc1.c1ccc(-c2ccccn2)nc1.c1ccc(-c2ccccn2)nc1.c1ccc(-c2nccnc2-c2ccccn2)nc1.c1ccc(-c2nccnc2-c2ccccn2)nc1 [[{(bpy)2Ru(dpp)}2RhCl2](PF6)5]
DNA cleavage without irradiation ([1]; incubated at 37° C. for 2 h, 1:5 metal complex/base pair): the plasmid DNA is not cleaved | DNA photocleavage (supercoiled to nicked form) ([1]; irradiated λ≧475 nm for 10 min, absence of molecular oxygen, 1:5 metal complex/base pair, 3.5 μM complex, phosphate buffer pH 7): conversion of the supercoiled DNA to the nicked form is observed | DNA photocleavage ([1]; irradiated λ≧475 nm, presence of molecular oxygen): also observed in the presence of molecular oxygen | DNA photocleavage ([2]; presence of molecular oxygen): also observed in the presence of molecular oxygen | Toxicity to cells in the dark ([3]; Vero cells, no illumination, 0.5 mg/mL): not toxic to cells in the dark | Vero cell replication, complex alone ([3]; incubated in the dark, without illumination, MEM media (FIG. 11A)): did not impact replication | Photoinduced inhibition of Vero cell replication ([3]; photolysis at λ>475 nm after incubation with 0.5 mg/mL complex in MEM media (FIG. 11A)): greatly inhibits cell replication

F[P-](F)(F)(F)(F)F.F[P-](F)(F)(F)(F)F.F[P-](F)(F)(F)(F)F.[Cl-].[Cl-].[Cl-].[Cl-].[Rh+3].[Ru+2].[Ru+2].c1ccc(-c2cccc(-c3ccccn3)n2)nc1.c1ccc(-c2cccc(-c3ccccn3)n2)nc1.c1ccc(-c2nccnc2-c2ccccn2)nc1.c1ccc(-c2nccnc2-c2ccccn2)nc1 [[{(tpy)RuCl(dpp)}2RhCl2](PF6)3, [(2,2′:6′,2″-terpyridine) RuCl(2,3-bis(2-pyridyl)pyrazine)RhCl2(2,3-bis(2-pyridyl)pyrazine)RuCl(2,2′:6′,2″-terpyridine)](PF6)3]
DNA photocleavage ([2]; photolyzed at >475 nm for 20 minutes, 1:5 metal complex/base pair (FIG. 12B)): efficiently cleave DNA

[(2,2′:6′,2″-terpyridine)RuCl(2,2′-bipyridimidine)RhCl2(2,2′-bipyridimidine)RuCl(2,2′:6′,2″-terpyridine)](PF6)3 [[{(tpy)RuCl(bpm)}2RhCl2](PF6)3]
DNA photocleavage ([1]; photolyzed at >475 nm for 15 minutes, 1:5 metal complex/base pair (FIG. 12C)): efficiently cleave DNA
